From PubChem BioAssay (NCI)
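Each compound was tested at five concentrations against cells in 96-well plates for 48 hours. TGI is the concentration that stops growth completely.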

Assays:
Test in all cases: DTP human tumour cell line panel, 48 h
MCF7 breast = tested on: MCF7 breast
MDA-MB-231 breast = tested on: MDA-MB-231 breast
SK-MEL-5 melanoma = tested on: SK-MEL-5 melanoma
HCT-116 colon = tested on: HCT-116 colon
MOLT-4 leukemia = tested on: MOLT-4 leukemia
HOP-62 NSCLC = tested on: HOP-62 NSCLC

SMILES	TGI (MCF7 breast) [µM]	TGI (MDA-MB-231 breast) [µM]	TGI (SK-MEL-5 melanoma) [µM]	TGI (HCT-116 colon) [µM]	TGI (MOLT-4 leukemia) [µM]	TGI (HOP-62 NSCLC) [µM]
CC(=O)c1cc(CC2Cc3cc4c(cc3C2=O)CCC4)cc2c1CCC2 (centres undefined)	> 100	> 100	61.2	> 100	90.5	> 100
CC(C)C1CC(CO)(CNc2nc(N)nc(Cl)c2/C=N\O)C1 (centres undefined)	4.27	31.6	2.82	34	63	> 100
CC1(C)CCCC2CC2CCC(C)(C)C1=O (centres undefined)	75.8	> 100	> 100	> 100	83.1	> 100
CCCCC(O)(c1ccccc1)C(O)(c1ccccc1)c1c(F)c(F)c(F)c(F)c1F (centres undefined)	53.1	34.9	35.5	65	45.6	49.5
Cc1cc(O)c2c(c1)C(C1OC(CO)C(O)C(O)C1O)c1cc(O)cc(O)c1C2=O (centres undefined)	> 100	> 100	> 100	> 100	> 100	> 100
O=C(NC1CCN(Cc2ccccc2)CC1)c1cccc(I)c1		32.1	31.2	28.9	> 100	30.6
COc1ccc(C[n+]2cccc(O)c2)cc1	> 100	> 100	> 100	> 100	> 100	> 100
O=C(O)CCNc1ncc2c(n1)-c1ccccc1OC2	> 100	> 100	> 100	> 100	> 100	> 100
C=C1C2C[C@@H]3O[C@H]4C[C@H]5O[C@@]6(C[C@@H]7O[C@]8(C[C@H](C)[C@@H]9O[C@@H]%10CC(C=O)O[C@@H]%10C[C@@H]9O8)C[C@H](C)[C@@H]7O6)C[C@H]5O[C@H]4[C@H](C)[C@H]3OC(=O)C[C@H]3CC[C@@H]4OC5[C@H]6O[C@]7(CC[C@H]8CC(=C)[C@H](CC[C@@H](C[C@H]1C)O2)O8)CC6O[C@@H]5[C@@H](O7)[C@H]4O3 (some centres undefined)	> 1	> 0.218	> 1	> 1	> 1	> 1
CCCCCCc1cc2cc(C(=O)NCc3ccccc3)c(=N)oc2cc1O	> 100	> 100	> 100	> 100	> 100	> 100
CCOc1ccc(N2C(=O)NC3(c4ccccc4)N(C)C(=O)N(C)C23c2ccccc2)cc1 (centres undefined)	> 100	> 100	> 100	> 100	> 100	> 100
Cc1c2oc3c(C)cnc(C(=O)NC4C(=O)NC(C(C)C)C(=O)N5CCCC5C(=O)N(C)CC(=O)N(C)C(C(C)C)C(=O)OC4C)c3nc-2c(C(=O)NC2C(=O)NC(C(C)C)C(=O)N3CCCC3C(=O)N(C)CC(=O)N(C)C(C(C)C)C(=O)OC2C)c(N)c1=O (centres undefined)	> 75	41.3	21.6	> 35.5	0.675	> 57.7
Cc1n[nH]c(=O)n1Nc1ccccc1	> 100	> 100	> 100	> 100	> 100	> 100
COc1ccc(C(=O)N2CCN(c3ccc4c(c3)OCC(=O)N4)CC2)cc1OC	> 100	> 100	> 100	> 100	> 100	> 100
N#Cc1sc2c(c1OC(=O)c1ccc(Cl)cc1)c(=O)n(-c1ccccc1)c(=S)n2-c1ccccc1	84.2	97	38.8	44.3	68.7	82.7
COC(=O)CNC(=O)CNC(=O)CSc1nnc(COc2ccc(Cl)cc2)n1-c1ccccc1	> 100	39.2	41	> 100	> 100	> 100
Cc1ccc(N=NN(C)C(C)C(O)Cc2ccccc2)cc1 (centres undefined)	> 100	> 100	> 100	> 100	> 100	> 100
CCOC(=O)c1cc(-c2ccc([N+](=O)[O-])cc2)c([N+](=O)[O-])[nH]1		> 10		> 10	> 10	
O=S(=O)(O)c1ccc(Nc2ccnc3ccccc23)cc1	> 100	> 100	> 100	> 100	> 100	> 100
CCOC(CN(C)C(=O)Nc1ccc(Cl)c(Cl)c1)OCC	> 10	> 10	> 10	> 10	> 10	> 10
O=c1sc(Nc2ccc3ccccc3c2Cl)nc2ccccc12	> 100	> 100	> 100	> 100		> 100
CSCCC(NC(=O)Cc1ccc(C(=O)c2ccccc2)cc1)C(=O)N1CCN(CCCCN2c3ccccc3Sc3cc(N=[N+]=[N-])ccc32)CC1 (centres undefined)	> 100	> 100	> 100	> 100	> 100	> 100
O=C(O)C1CC(C2CCCCN2)CN2CCCCC12 (centres undefined)	> 100	> 100	> 100	> 100	> 100	> 100
NC1=NCC(CN2CCCCC2)O1 (centres undefined)	> 100	> 100	> 100	> 100	> 100	> 100
O=C1NC(=S)N/C1=C\c1ccc(Cl)cc1	> 100	> 100	> 100	> 100	> 100	> 100
CN1CN(c2ccccc2)C2(CCN(C3Nc4ccccc4O3)CC2)C1=O (centres undefined)	38.6	44.6	32	29.8	92.2	31.1
O=C1C=CC(=O)c2c(O)c(NCCO)c(Cl)c(O)c21	3.94	6.37	2.75	3.55	> 10	> 8.35
C=C[C@]1(C)CC(=O)C(C(C)C=O)[C@]12C(=O)Oc1cccc(C)c1C2=O (some centres undefined)	32.7	31.6	25.9	20.6	> 100	35.9
O=C(CCc1ccc(O)c(O)c1)NCCc1ccccc1	35	> 63.8	> 48.7	> 31.6	> 100	> 100
